Common to all, as to format: cell-based
Experiment [1] concerns the target T1, SMARCA2 (Homo sapiens, UniProt P51531).
T1 construct: endogenous in cells; host or cells: MV-4-11 (CRL-9591)
Nature of the experiment: SMARCA2 degradation in MV-4-11 cells by Western blot. To be noted: MV4-11, 16 h, at 100 nM, vs DMSO, read-out: Percent degradation SMARCA2. As for the experimental part:
(§1) Example-P3: Determination of SMARCA2 and SMARCA4 Degradation in MV-4-11 Cells by Western Blot
(§2) MV-4-11 (CRL-9591™) cells were plated in 6 well plates using complete Iscove's Modified Dulbecco's Medium. On the third day, compounds of present invention were added to cells from 10 mM stocks made in DMSO (Sigma Cat no. D2650). Each concentration of compound was tested with DMSO not exceeding final percentage of 0.1 in the cells. Cells were incubated with the compound for 16 hours followed by harvesting with 1×RIPA lysis buffer (Thermo Fischer, catalogue number #89900) containing protease inhibitor cocktail (Sigma catalogue number #P-8340). Equal amount of protein was loaded on SDS PAGE gel for electrophoresis. Western blot was carried out for detection of either SMARCA2 (Cell signalling technologies, catalogue number #11966) or SMARCA4 antibody (Cell signalling technologies, catalogue number #52251). Beta-Tubulin antibody (Cell signalling technologies, catalogue number #86298) was used as loading control. Percentage of SMARCA2 or SMARCA4 degradation was calculated using formula % Degradation=100−(normalized band intensity in treated sample/normalized band intensity in DMSO sample)*100. Here, “ND” refers to Not determined.
Background: A western blot detects proteins with antibodies after separation by electrophoresis.

Experiment [2] has as its system MV-4-11 cells. In words: Anti proliferative activity in MV-4-11 cells by Cell Titer Glo (Promega) assay. To be noted: Homo sapiens, MV4-11, 72 h, 3 days, CellTiter-Glo. How it is done: Example-P2: Determination of Anti Proliferative Activity of Compounds in Cell Lines MV-4-11 by Cell Titer Glo® (Promega) Assay
MV-4-11 (CRL-9591™) cells were seeded in 96 well plate flat black clear bottom plates (Corning, Cat. No 3904) using complete DMEM Medium. Next day, selected compounds of the present invention were added to cells from 10 mM stocks made in DMSO (Sigma Cat no. D2650). Each concentration of compound was tested in triplicate with DMSO concentration at a final percentage not exceeding 0.3 in the cells. After the incubation of MV-4-11 cells with compound for 3 days; assay was terminated using 100 μl of CellTiter Glo® reagent (Promega, Cat. no G7572). CellTiter-Glo® Luminescent reagent determines the number of viable cells based on quantitation of ATP present which is an indicator of cell number and metabolic activity. Luminescence readings were taken in Victor-5 instrument. Percent inhibition of proliferation was calculated using formula, % inhibition=100−(luminescence value of test/luminescence value of DMSO control)*100. DMSO control (0%)=Cells in complete media with DMSO; blank=Media alone containing DMSO. EC50 was calculated using graph pad prism software.
(ATP-based viability assays read luminescence as a measure of living cells.)

In experiment [3] the target is T2, SMARCA4 (Homo sapiens, UniProt P51532).
T2 construct: endogenous in cells; host or cells: MV-4-11 (CRL-9591)
T2 sequence (P51532 whole entry): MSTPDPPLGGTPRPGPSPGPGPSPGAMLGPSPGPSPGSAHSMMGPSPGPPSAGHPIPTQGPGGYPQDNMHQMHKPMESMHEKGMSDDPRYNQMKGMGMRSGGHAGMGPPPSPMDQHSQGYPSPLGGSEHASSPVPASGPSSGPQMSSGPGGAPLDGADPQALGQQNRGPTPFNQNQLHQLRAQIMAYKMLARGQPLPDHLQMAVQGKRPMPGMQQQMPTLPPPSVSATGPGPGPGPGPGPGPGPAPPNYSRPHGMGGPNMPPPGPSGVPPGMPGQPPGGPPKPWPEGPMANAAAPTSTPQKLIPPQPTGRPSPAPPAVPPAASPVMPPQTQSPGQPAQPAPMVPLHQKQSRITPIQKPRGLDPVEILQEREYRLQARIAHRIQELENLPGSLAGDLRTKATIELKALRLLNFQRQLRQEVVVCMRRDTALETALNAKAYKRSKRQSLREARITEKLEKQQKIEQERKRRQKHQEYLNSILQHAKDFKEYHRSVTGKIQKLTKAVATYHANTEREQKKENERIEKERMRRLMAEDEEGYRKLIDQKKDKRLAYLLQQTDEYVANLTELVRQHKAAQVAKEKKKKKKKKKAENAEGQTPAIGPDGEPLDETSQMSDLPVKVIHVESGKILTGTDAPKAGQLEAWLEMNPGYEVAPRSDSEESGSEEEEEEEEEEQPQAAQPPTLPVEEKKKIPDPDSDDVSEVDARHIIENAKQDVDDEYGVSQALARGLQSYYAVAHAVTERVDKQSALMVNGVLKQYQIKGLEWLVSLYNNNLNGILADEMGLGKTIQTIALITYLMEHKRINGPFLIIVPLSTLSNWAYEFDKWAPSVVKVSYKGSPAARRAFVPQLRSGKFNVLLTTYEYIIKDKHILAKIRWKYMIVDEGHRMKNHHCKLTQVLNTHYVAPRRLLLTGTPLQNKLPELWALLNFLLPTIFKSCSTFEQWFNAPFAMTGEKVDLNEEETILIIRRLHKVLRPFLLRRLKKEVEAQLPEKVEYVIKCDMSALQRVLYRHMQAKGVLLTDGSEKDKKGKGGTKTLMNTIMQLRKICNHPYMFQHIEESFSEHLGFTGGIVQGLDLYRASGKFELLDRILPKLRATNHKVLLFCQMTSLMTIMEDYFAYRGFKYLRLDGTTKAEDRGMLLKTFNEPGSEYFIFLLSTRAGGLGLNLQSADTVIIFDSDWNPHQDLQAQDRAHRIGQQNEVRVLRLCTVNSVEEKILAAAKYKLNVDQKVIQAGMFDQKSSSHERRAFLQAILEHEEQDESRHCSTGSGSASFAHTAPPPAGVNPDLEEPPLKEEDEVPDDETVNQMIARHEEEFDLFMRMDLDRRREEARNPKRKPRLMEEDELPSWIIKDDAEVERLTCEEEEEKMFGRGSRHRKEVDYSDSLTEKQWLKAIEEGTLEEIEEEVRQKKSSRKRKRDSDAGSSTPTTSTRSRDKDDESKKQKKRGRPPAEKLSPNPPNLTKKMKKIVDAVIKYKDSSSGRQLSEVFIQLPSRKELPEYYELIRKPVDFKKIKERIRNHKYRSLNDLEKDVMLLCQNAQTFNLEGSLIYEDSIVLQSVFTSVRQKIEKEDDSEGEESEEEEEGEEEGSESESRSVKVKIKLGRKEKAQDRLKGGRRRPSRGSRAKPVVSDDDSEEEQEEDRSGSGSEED
Nature of the experiment: SMARCA4 degradation in MV-4-11 cells by Western blot. Conditions: MV4-11, at 100 nM, 16 hours, vs DMSO, read-out: Percent degradation SMARCA4. As for the experimental part: as §1, §2

The test system of experiment [4] is SK-MEL-5 cells. Nature of the experiment: Anti proliferative activity in SK-MEL-5 cells by Cell Titer Glo (Promega) assay. To be noted: Homo sapiens, retreatment on Day 4, terminated on day 8, CellTiter-Glo. How it is done: Example-P1: Determination of Anti Proliferative Activity of Compounds in Cell Lines SK-MEL-5 by Cell Titer Glo® (Promega) Assay
Cells were seeded into 96-well plates and the plate was incubated in 37 degrees incubator overnight. The next day, compounds were diluted 3-fold to cover 9-point concentration range in DMSO. Intermediate plate dilution was prepared in media followed with compound treatment in cells. Retreatment of cells with compound dilutions was performed on Day 4 and assay was terminated on day 8 for SK-MEL-5 cells using CellTiter-Glo and the plate was kept on orbital shaker for 20 minutes at RT. Assay was terminated on day 6 for RERF-LC-A1 without a compound retreatment. Luminescence signal was recorded on VICTOR^3 instrument. Percent inhibition of proliferation was calculated at each concentration and plotted against the compound concentration. EC50 value was calculated using GraphPad® software.

Where a name gives a salt, the structure may show the parent alone.

Broadly, the EC50 is the concentration giving half of the maximal effect. Low readings indicate greater potency, high ones weaker potency.

T1 sequence (P51531 whole entry): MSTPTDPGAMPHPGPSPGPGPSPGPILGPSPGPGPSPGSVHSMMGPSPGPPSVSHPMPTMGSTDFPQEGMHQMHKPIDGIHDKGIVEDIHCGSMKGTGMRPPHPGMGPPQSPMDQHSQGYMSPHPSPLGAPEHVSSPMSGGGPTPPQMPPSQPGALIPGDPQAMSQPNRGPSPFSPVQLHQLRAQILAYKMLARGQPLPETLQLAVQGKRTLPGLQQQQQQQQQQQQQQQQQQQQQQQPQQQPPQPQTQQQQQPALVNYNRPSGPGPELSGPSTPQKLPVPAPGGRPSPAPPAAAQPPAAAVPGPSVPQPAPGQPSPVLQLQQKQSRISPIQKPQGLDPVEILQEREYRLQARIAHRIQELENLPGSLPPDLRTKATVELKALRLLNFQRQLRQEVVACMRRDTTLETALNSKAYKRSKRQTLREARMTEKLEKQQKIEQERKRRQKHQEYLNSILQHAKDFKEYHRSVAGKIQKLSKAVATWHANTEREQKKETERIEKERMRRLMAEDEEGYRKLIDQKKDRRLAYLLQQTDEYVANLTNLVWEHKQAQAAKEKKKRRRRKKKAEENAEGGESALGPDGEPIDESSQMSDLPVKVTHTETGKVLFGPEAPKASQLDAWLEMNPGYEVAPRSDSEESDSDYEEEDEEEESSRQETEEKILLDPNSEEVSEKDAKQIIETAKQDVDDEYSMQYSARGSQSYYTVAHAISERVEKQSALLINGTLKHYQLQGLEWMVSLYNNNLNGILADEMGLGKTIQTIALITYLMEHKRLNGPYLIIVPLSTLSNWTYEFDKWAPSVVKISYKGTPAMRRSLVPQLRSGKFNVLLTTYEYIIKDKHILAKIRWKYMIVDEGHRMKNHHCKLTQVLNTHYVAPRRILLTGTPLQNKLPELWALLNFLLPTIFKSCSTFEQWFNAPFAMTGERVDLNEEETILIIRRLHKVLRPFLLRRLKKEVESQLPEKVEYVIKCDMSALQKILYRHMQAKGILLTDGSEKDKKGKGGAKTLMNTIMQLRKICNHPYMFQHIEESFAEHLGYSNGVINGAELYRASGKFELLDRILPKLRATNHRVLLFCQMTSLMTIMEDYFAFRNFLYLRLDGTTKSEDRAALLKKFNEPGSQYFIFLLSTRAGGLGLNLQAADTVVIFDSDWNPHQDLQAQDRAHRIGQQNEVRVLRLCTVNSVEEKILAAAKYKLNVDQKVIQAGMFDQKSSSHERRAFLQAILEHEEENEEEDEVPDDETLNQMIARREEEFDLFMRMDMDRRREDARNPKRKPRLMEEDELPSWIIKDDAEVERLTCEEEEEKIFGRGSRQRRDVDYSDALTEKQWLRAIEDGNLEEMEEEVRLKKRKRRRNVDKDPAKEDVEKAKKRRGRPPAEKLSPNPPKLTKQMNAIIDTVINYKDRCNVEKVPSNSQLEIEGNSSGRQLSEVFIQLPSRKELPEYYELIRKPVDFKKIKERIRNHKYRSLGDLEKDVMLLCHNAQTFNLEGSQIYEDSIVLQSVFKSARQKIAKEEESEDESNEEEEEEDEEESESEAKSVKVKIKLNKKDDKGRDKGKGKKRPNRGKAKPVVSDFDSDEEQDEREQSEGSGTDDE

For the compound `O=C1CCC(N2Cc3cc(C4CCN(C5CCN(c6ccc7c(c6)n(C6CCCC6)c6nc(=O)c8c(Br)cccc8n76)CC5)CC4)ccc3C2=O)C(=O)N1` (stereo not shown) [Compound 1, 3-(5-(1′-(4-Bromo-7-cyclopentyl-5-oxo-5,7-dihydrobenzo[4,5]imidazo[1,2-a]quinazolin-9-yl)-[1,4′-bipiperidin]-4-yl)-1-oxoisoindolin-2-yl)piperidine-2,6-dione], the inhibition at 0.1 µM in experiment [1] stood at 100%; in experiment [3], 98%. Also, the EC50 in experiment [2] and in experiment [4] was below 10 nM in each case.
As for `O=C1CCC(Oc2ccc(C3CCN(C4CCN(c5ccc6c(c5)n(C5CCCC5)c5nc(=O)c7c(Br)cccc7n65)CC4)CC3)cc2)C(=O)N1` (stereo not shown) [Compound 2, 3-(4-(1′-(4-bromo-7-cyclopentyl-5-oxo-5,7-dihydrobenzo[4,5]imidazo[1,2-a]quinazolin-9-yl)-[1,4′-bipiperidin]-4-yl)phenoxy)piperidine-2,6-dione-TFA salt], the inhibition at 0.1 µM in experiment [1] and in experiment [3] was 100% in each case. Further, the EC50 in experiment [2] and in experiment [4] was below 10 nM in each case.
Consider `O=C1CCC(Nc2ccc(C3CCN(C4CCN(c5ccc6c(c5)n(C5CCCC5)c5nc(=O)c7c(Br)cccc7n65)CC4)CC3)c(F)c2)C(=O)N1` (stereo not shown) [Compound 3, 3-((4-(1′-(4-bromo-7-cyclopentyl-5-oxo-5,7-dihydrobenzo[4,5]imidazo[1,2-a]quinazolin-9-yl)-[1,4′-bipiperidin]-4-yl)-3-fluorophenyl)amino)piperidine-2,6-dione], for which the inhibition at 0.1 µM in experiment [1] turned out to be 100%; in experiment [3], 99%. Moreover, the EC50 in experiment [2] and in experiment [4] was below 10 nM throughout.
For the compound `O=C1CCC(c2ccc(C3CCN(C4CCN(c5ccc6c(c5)n(C5CCCC5)c5nc(=O)c7c(Br)cccc7n65)CC4)CC3)cc2)C(=O)N1` (stereo not shown) [Compound 4, 3-(4-(1′-(4-bromo-7-cyclopentyl-5-oxo-5,7-dihydrobenzo[4,5]imidazo[1,2-a]quinazolin-9-yl)-[1,4′-bipiperidin]-4-yl)phenyl)piperidine-2,6-dione], the inhibition at 0.1 µM was determined as 90% in experiment [1] and 97% in experiment [3]. In addition, the EC50 in experiment [2] and in experiment [4] was below 10 nM each time.
As for `O=C1CCC(c2ccc(N3CCN(C4CCN(c5ccc6c(c5)n(C5CCCC5)c5nc(=O)c7c(Br)cccc7n65)CC4)CC3)cc2)C(=O)N1` (stereo not shown) [Compound 6, 3-(4-(4-(1-(4-bromo-7-cyclopentyl-5-oxo-5,7-dihydrobenzo[4,5]imidazo[1,2-a]quinazolin-9-yl)piperidin-4-yl)piperazin-1-yl)phenyl)piperidine-2,6-dione], the values for the inhibition at 0.1 µM in experiment [1] and in experiment [3] were 96% and 90%, respectively. Further, the values for the EC50 in experiment [2] and in experiment [4] were above 100 nM and below 10 nM, respectively.
For `O=C1CCC(N2Cc3cc(C4CCN(C5CCN(C6CCN(c7ccc8c(c7)n(C7CCCC7)c7nc(=O)c9c(Br)cccc9n87)CC6)CC5)CC4)ccc3C2=O)C(=O)N1` (stereo not shown) [Compound 7, 3-(5-(1″-(4-bromo-7-cyclopentyl-5-oxo-5,7-dihydrobenzo[4,5]imidazo[1,2-a]quinazolin-9-yl)-[1,4′:1′,4″-terpiperidin]-4-yl)-1-oxoisoindolin-2-yl)piperidine-2,6-dione] the same measures were 99%, 99%, below 10 nM and below 10 nM.
`Cn1c2cc(N3CCC(N4CCN(c5ccc(NC6CCC(=O)NC6=O)cc5F)CC4)CC3)ccc2n2c3cccc(N)c3c(=O)nc12` (stereo not shown) [Compound 40, 3-((4-(4-(1-(4-amino-7-methyl-5-oxo-5,7-dihydrobenzo[4,5]imidazo[1,2-a]quinazolin-9-yl)piperidin-4-yl)piperazin-1-yl)-3-fluorophenyl)amino)piperidine-2,6-dione]: the inhibition at 0.1 µM in experiment [1] was determined as 48%. The EC50 in experiment [2] and in experiment [4] was above 100 nM throughout.
Regarding `CC(C)n1c2cc(N3CCC(N4CCN(c5ccc(C6CCC(=O)NC6=O)cc5)CC4)CC3)ccc2n2c3cccc(N)c3c(=O)nc12` (stereo not shown) [Compound 44, 3-(4-(4-(1-(4-amino-7-isopropyl-5-oxo-5,7-dihydrobenzo[4,5]imidazo[1,2-a]quinazolin-9-yl)piperidin-4-yl)piperazin-1-yl)phenyl)piperidine-2,6-dione], the inhibition at 0.1 µM in experiment [1] was 16%. For the same compound, the concentration giving a half-maximal response (EC50) in experiment [2] and in experiment [4] was above 100 nM throughout.
Regarding `Cn1c2cc(N3CCN(C4CN(c5ccc6c(c5)C(=O)N(C5CCC(=O)NC5=O)C6=O)C4)CC3)ccc2n2c3cccc(N)c3c(=O)nc12` (stereo not shown) [Compound 45, 5-(3-(4-(4-amino-7-methyl-5-oxo-5,7-dihydrobenzo[4,5]imidazo[1,2-a]quinazolin-9-yl)piperazin-1-yl)azetidin-1-yl)-2-(2,6-dioxopiperidin-3-yl)isoindoline-1,3-dione], the inhibition at 0.1 µM in experiment [1] came out at 21%. The EC50 in experiment [2] and in experiment [4] was above 100 nM throughout.
As for `Cn1c2cc(N3CCC(N4CCN(c5ccc(NC6CCC(=O)NC6=O)cc5F)CC4)CC3)ccc2n2c3cccc(Cl)c3c(=O)nc12` (stereo not shown) [Compound 46, 3-((4-(4-(1-(4-chloro-7-methyl-5-oxo-5,7-dihydrobenzo[4,5]imidazo[1,2-a]quinazolin-9-yl)piperidin-4-yl)piperazin-1-yl)-3-fluorophenyl)amino)piperidine-2,6-dione], the EC50 in experiment [2] was above 100 nM; in experiment [4] it was below 10 nM.
For `CC(C)n1c2cc(N3CCC(N4CCN(c5ccc(NC6CCC(=O)NC6=O)cc5F)CC4)CC3)ccc2n2c3cccc(Cl)c3c(=O)nc12` (stereo not shown) [Compound 47, 3-((4-(4-(1-(4-chloro-7-isopropyl-5-oxo-5,7-dihydrobenzo[4,5]imidazo[1,2-a]quinazolin-9-yl)piperidin-4-yl)piperazin-1-yl)-3-fluorophenyl)amino)piperidine-2,6-dione], the results for the EC50 in experiment [2] and in experiment [4] were above 100 nM and below 10 nM, respectively.
The corresponding values for `CC(C)n1c2cc(N3CCC(N4CCN(c5ccc6c(c5)CN(C5CCC(=O)NC5=O)C6=O)CC4)CC3)ccc2n2c3cccc(Cl)c3c(=O)nc12` (stereo not shown) [Compound 48, 3-(5-(4-(1-(4-chloro-7-isopropyl-5-oxo-5,7-dihydrobenzo[4,5]imidazo[1,2-a]quinazolin-9-yl)piperidin-4-yl)piperazin-1-yl)-1-oxoisoindolin-2-yl)piperidine-2,6-dione] are above 100 nM and below 10 nM.
For `Cn1c2cc(-c3ccc(N4CCN(c5ccc(NC6CCC(=O)NC6=O)cc5F)CC4)cc3)ccc2n2c3cccc(N)c3c(=O)nc12` (stereo not shown) [Compound 49, 3-((4-(4-(4-(4-amino-7-methyl-5-oxo-5,7-dihydrobenzo[4,5]imidazo[1,2-a]quinazolin-9-yl)phenyl)piperazin-1-yl)-3-fluorophenyl)amino)piperidine-2,6-dione] the same measures were above 100 nM and above 100 nM.
For `CC(C)n1c2cc(-c3ccc(N4CCN(c5ccc(NC6CCC(=O)NC6=O)cc5F)CC4)cc3)ccc2n2c3cccc(Cl)c3c(=O)nc12` (stereo not shown) [Compound 50, 3-((4-(4-(4-(4-chloro-7-isopropyl-5-oxo-5,7-dihydrobenzo[4,5]imidazo[1,2-a]quinazolin-9-yl)phenyl)piperazin-1-yl)-3-fluorophenyl)amino)piperidine-2,6-dione.TFA], the EC50 in experiment [2] and in experiment [4] was above 100 nM in each case.

(Values after patent publication US20260297094A1, “Tetracyclic Compounds as SMARCA2 and/or SMARCA4 Degraders” (Aurigene Oncology Limited, priority 2023, published 2026).)
